Assay results from article PMC10818380, “Triphenylphosphonium Analogs of Short Peptide Related to Bactenecin 7 and Oncocin 112 as Antimicrobial Agents” (Pharmaceutics, 2024).
Values after ≈ are worked out from the molar mass of the structure shown. Like-named read-outs stand apart in the source and are kept apart here. Peptide text beside a SMILES is read from it. * marks the point of attachment. X3 = O=C(CCCCCCCCCC[P+](c1ccccc1)(c1ccccc1)c1ccccc1)*

Columns and labels:
HEK293T = experiment: cells; format: cell-based, human; details: 72 h
Method: (§1) The cytotoxicity of the substances under study was tested using the MTT (3-(4,5-dimethylthiazol-2-yl)-2,5-diphenyltetrazolium bromide) assay with some modifications. The detailed procedure for the MTT assay is given in the Supplementary Materials (Section S5).
(§2) Two thousand five hundred cells per well for the MCF7, HEK293T, and A549 cell lines or 4000 cells per well for the VA13 cell line were plated in 135 µL of DMEM-F12 media with 10% FBS (both Gibco, Waltham, MA, USA) in a 96-well plate and were incubated in a 5% CO2 incubator for the first 16 h, without treatment. Then 15 µL of media-DMSO solutions of the tested substances were added to the cells (the final DMSO concentrations in the media were 1% or less), and the cells were treated for 72 h with 25 nM–50 µM (eight dilutions) of the tested substances (triplicate each). Serial dilutions of DMSO and doxorubicin were used as controls. The MTT reagent (Paneco LLC, Moscow, Russia) was then added to the cells at a final concentration of 0.5 g/L (10× stock solution in PBS was used) and incubated for 2.5 h at 37 °C in the incubator under an atmosphere of 5%
(§3) CO2. The MTT solution was then discarded, and 140 µL of DMSO (PharmaMed LLC, Krasnodar, Russia) was added. The plates were swayed on a shaker (60 rpm) to dissolve the formazan. The absorbance was measured using the VICTOR X5 Multilabel Plate Reader (PerkinElmer, Wa l th a m, MA, USA) at a wavelength of 565 nm (in order to measure formazan concentration). The resu l ts were used to construct a dose-response graph and to estimate IC50 values.
(§4) Figure S11.The dependencies of viability of cells after treatment by tested compounds.
(§5) (1 picture or pasted object on this page, not shown here)

MCF7 = experiment: cells; format: cell-based, human
Method: as §1, §2, §3, §4, §5

VA13 = experiment: cells; format: cell-based, human
Method: as §1, §2, §3, §4, §5

A549 = experiment: cells
Method: as §1, §2, §3, §4, §5

[1] = system: E. coli JW5503 (∆tolC) (KanS) pDualrep2; experiment: pDualrep2 double-reporter agar plate test; format: cell-based; details: 1 µL of 10 mM solution on agar plate
Method: The “pDualrep2” system was used to evaluate the mechanism of the antimicrobial action of the synthesized compounds. This system is based on the hypersensitive strain E. coli JW5503 (∆tolC) (KanS) transformed with the “pDualrep2” plasmid, which allows one to sort out suppressors of protein synthesis or SOS response inducers. Briefly, 1 µL of 10 mM water solutions of Bac(1–10), Bac(1–10, R/Y), Bac(1–10, R/Y)-Cn-TPP, TPP-C10-Bac(1–10, R/Y), and Onc112 were applied onto the agar plate that already contained a layer of the reporter strain E. coli JW5503 (∆tolC) (KanS) pDualrep2, and then the plate was incubated overnight at 37 °C. The agar plate was scanned using the ChemiDoc^TM Imaging System (Bio-Rad Laboratories, Hercules, CA, USA), containing two channels, “Cy3-blot” (553/574 nm; green pseudocolor) for Turbo Red Fluorescent Protein (TurboRFP) detection and “Cy5-blot” (588/633 nm; red pseudocolor) for Katushka2S fluorescence. […] Levofloxacin (LEV; 50 μg/mL, 1 μL) and erythromycin (ERY; 5 mg/mL, 1 μL) were utilized as positive controls for DNA and protein synthesis inhibitors, respectively.

B. subtilis 168 = experiment: microbe, parasite or virus in culture; format: cell-based; details: B. subtilis 168, 37 °C, 18 h
Method: (§6) The MIC values for Bac(1–10), Bac(1–10, R/Y), Bac(1–10, R/Y)-Cn-TPP, TPP-C10-Bac(1–10, R/Y), and Onc112 were determined via LB broth microdilution, as recommended by CLSI in the Methods for Dilution Antimicrobial Susceptibility Tests for Bacteria that Grow Aerobically, Approved Standard, 9th ed., CLSI document M07-A9, using in-house-prepared panels. The compounds were diluted in a 96-well microtiter plate to final concentrations ranging from 0.1 to 100 µM in a 200 µL aliquot of the bacterial suspension, followed by incubation at 37 °C for 18 h. The cell concentration was estimated according to the absorbance (A600). The measurements were performed with a VICTOR X5 Multilabel Plate Reader (PerkinElmer, Waltham, MA, USA). The following bacterial strains were used: E. coli BW25113, E. coli JW0368 ΔsbmA, B. subtilis 168, and B. subtilis CFR [39].

B. subtilis CFR = experiment: microbe, parasite or virus in culture; format: cell-based; details: 18 h
Method: as §6

E. coli BW25113 = experiment: microbe, parasite or virus in culture; format: cell-based; details: E. coli BW25113, 37 °C, 18 h
Method: as §6

E. coli JW0368 ΔsbmA = experiment: microbe, parasite or virus in culture; format: cell-based; details: for MIC: 18 h
Method: as §6

70S E. coli ribosome = experiment: Competition-binding assay, displacement of BODIPY-Bac(1–10), fluorescence anisotropy; details: CI (α = 0.05), read-out: apparent dissociation constant (KD)
Method: 70S ribosomes were isolated from E. coli MRE600 cells according to a published procedure. The binding of BODIPY-Bac(1–10) to 70S E. coli ribosomes was performed according to the following procedure. BODIPY-Bac(1–10) (16 nM) was incubated with ribosomes (from 0.5 nM to 2000 nM) for 2 h at 26 °C in a buffer containing 20 mM of HEPES-KOH (pH 7.5), 50 mM of NH4Cl, 10 mM of Mg(CH3COO)2, 4 mM of β-mercaptoethanol, and 0.05% Tween-20. The binding affinities of peptides 1 and 2, their TPP analogs 3–5, as well as the control compounds for the E. coli ribosome were analyzed via a competition-binding assay using fluorescently labeled BODIPY-Bac(1–10) or BODIPY-ERY, as described before in [38, 54]. The fluorescent compound (16 nM) was mixed with ribosomes (84 nM for BODIPY-Bac(1–10) and 46 nM for BODIPY-ERY) in the buffer. Solutions of the tested compounds were added to the obtained complexes to final concentrations ranging from 0.01 to 100 µM. The mixtures were incubated for 2 h at 26 °C, and then the values of fluorescence anisotropy were measured with a VICTOR X5 Multilabel Plate Reader (PerkinElmer, Waltham, MA, USA) using a 384-well plate. The excitation wavelength was 485 nm, and the emission wavelength was 535 nm. From the data obtained, apparent dissociation constants were calculated.

[2] = system: bacterial translation (E. coli S30 extract); experiment: In vitro translation inhibition of firefly luciferase mRNA, E. coli S30 extract; format: biochemical; details: 30 µM
Method: Briefly, in vitro-transcribed firefly luciferase mRNA (fluc) was translated using the E. coli S30 Extract System for Linear Templates (Promega, Madison, WI, USA). Reaction mixtures (with a 5 μL total volume) supplemented with 0.1 mM of a mixture of all canonical amino acids, 4 U of RiboLock RNase Inhibitor (Thermo Fisher Scientific, Waltham, MA, USA), and 0.1 mM of D-luciferin (Sigma-Aldrich, Burlington, MA, USA) were pre-incubated at RT for 5 min after the addition of the tested compounds at a final concentration of 30 µM. Then, 50 ng of the mRNA was added to each reaction tube, and the mixtures were immediately subjected to continuous chemiluminescence measurements using the VICTOR X5 Multilabel Plate Reader (PerkinElmer, Waltham, MA, USA) at 37 °C for 30 min. The maximal rates of the firefly luciferase (Fluc) accumulation were calculated using the OriginPro 7.5 software. The values were normalized to a positive control (0.3% DMSO, assigned a value of 100%).

B. subtilis = experiment: Membrane potential with fluorescent probe diS-C3-(5); format: cell-based; details: diS-C3-(5) fluorescence
Method: The membrane potential of B. subtilis was assessed by measuring the fluorescence emitted by the potential-dependent probe, diS-C3-(5). Bacterial cells derived from the overnight culture of B. subtilis were inoculated into a fresh LB medium and allowed to grow for 24 h until reaching an optical density of 0.8 at 600 nm. Subsequently, the bacteria were subjected to a 20-fold dilution in a buffer comprising 100 mM of KCl and 10 mM of Tris, adjusted to a pH of 7.4. Fluorescence measurements were conducted at 670 nm (with excitation at 630 nm) using a Fluorat-02-Panorama fluorimeter manufactured by Lumex Instruments in St. Petersburg, Russia.

| Compound | Kd (70S E. coli ribosome) | inhibition of bacterial translation of firefly luciferase (Fluc) mRNA [2] | inhibitory effect on growth of bacterial cells [1] | MIC (E. coli BW25113) | MIC (E. coli JW0368 ΔsbmA; E. coli ∆sbmA, 37 °C) | IC50 (HEK293T) | IC50 (MCF7; 72 h) | IC50 (VA13; 72 h) | IC50 (A549; 72 h) | other results |
| --- | --- | --- | --- | --- | --- | --- | --- | --- | --- | --- |
| COc1cccc2c1C(=O)c1c(O)c3c(c(O)c1C2=O)C[C@@](O)(C(=O)CO)C[C@@H]3O[C@H]1C[C@H](N)[C@H](O)[C@H](C)O1 [Doxorubicin, reference compound] |  |  |  |  |  |  |  |  |  | IC50 (HEK293T; Homo sapiens, HEK-293T, HEK293T, MTT, read-out: IC50 (50% inhibition of viability of cells)): < 1600 nM; IC50 (MCF7; Homo sapiens, MCF7, 72 h, MTT, read-out: IC50 (50% inhibition of viability of cells)): 1700 ± 200 nM; IC50 (VA13; Homo sapiens, VA-13, VA13, 72 h, MTT, read-out: IC50 (50% inhibition of viability of cells)): 1200 ± 300 nM; IC50 (A549; Homo sapiens, A549, 72 h, read-out: IC50 (50% inhibition of viability of cells)): 1200 ± 100 nM |
| CC[C@H]1OC(=O)[C@H](C)[C@@H](O[C@H]2C[C@@](C)(OC)[C@@H](O)[C@H](C)O2)[C@H](C)[C@@H](O[C@@H]2O[C@H](C)C[C@H](N(C)C)[C@H]2O)[C@](C)(O)C[C@@H](C)C(=O)[C@H](C)[C@@H](O)[C@]1(C)O [ERY, erythromycin, reference compound] |  |  |  |  |  |  |  |  |  | reporter induction (Katushka2S red pseudocolor = protein synthesis inhibition) [1]: red pseudocolor reporter induction was observed; MIC (B. subtilis 168; Bacillus subtilis): < 0.1 µM; MIC (B. subtilis CFR; Bacillus subtilis, B. subtilis-CFR (chloramphenicol-resistant), 37 °C): < 0.1 µM; MIC (E. coli BW25113; Escherichia coli): 170 µM (≈ 125 µg/mL); MIC (E. coli JW0368 ΔsbmA; Escherichia coli): 170 µM (≈ 125 µg/mL) |
| H-RRIRPRPPYL-OH [Compound 2, Bac(1–10, R/Y)] | 1000 ± 100 nM | practically did not inhibit | did not exhibit any antibacterial activity | >100 µM | >100 µM | > 50000 nM | > 20000 nM | > 50000 nM | > 50000 nM | effect on membrane potential of B. subtilis (B. subtilis; 50 µM): did not affect the membrane potential |
| CC[C@H](C)[C@H](NC(=O)[C@H](CCCNC(=N)N)NC(=O)[C@H](CCCNC(=N)N)NC(=O)CCCCCCCCCC[P+](c1ccccc1)(c1ccccc1)c1ccccc1)C(=O)N[C@@H](CCCNC(=N)N)C(=O)N1CCC[C@H]1C(=O)N[C@@H](CCCNC(=N)N)C(=O)N1CCC[C@H]1C(=O)N1CCC[C@H]1C(=O)N[C@@H](Cc1ccc(O)cc1)C(=O)N[C@@H](CC(C)C)C(=O)O [Compound 5, TPP-C10-Bac(1–10, R/Y)] (X3-RRIRPRPPYL-OH) | 160 ± 20 nM | weakly inhibited | demonstrated an inhibitory effect on the growth of bacterial cells | 5.3 µM | 5.3 µM | 36000 ± 4000 nM | > 20000 nM | > 50000 nM | > 50000 nM | MIC (B. subtilis 168): 12.5 µM; MIC (B. subtilis CFR; CFR): 12.5 µM; comparison of MIC values, E. coli ΔsbmA versus wild type (E. coli JW0368 ΔsbmA; MIC values of Table 1): the same; effect on membrane potential of B. subtilis (B. subtilis; 2.5 µM): decrease in the membrane potential, to a somewhat lesser extent |
